{"source": "patent US7923563B2", "about": "“Amorphous object of cinnamide compound” (Eisai R&D Management Co., Ltd., priority 2004, dated 2011)", "key": {"[1]": {"assay": "Solubility test of the crystalline compound (1) and the amorphous compound (1) (apparent solubility in buffer, HPLC)", "type": "physicochemical", "conditions": "room temperature, 30 minutes standing after ultrasonication", "procedure": "An excess amount of each sample was added to 0.5 mL of the following each test solution, which was then dispersed and dissolved by a ultrasonication operation for several minutes (about 3 minutes). After allowing to stand at room temperature for 30 minutes, the supernatant was separated by a centrifugation operation; the sample concentration in the supernatant as determined by an HPLC method was defined as an apparent solubility in each test solution.\npH 5: Diluted Mcllvaine buffer solution (Kanto Chemical Co. Inc.)\npH 7: GIBCO™ (Dulbecco's phosphate-buffered saline, Invitrogen Corporation)"}, "[2]": {"assay": "Hygroscopicity test of the amorphous compound (1) (microbalance, weight change vs relative humidity)", "type": "physicochemical", "conditions": "25° C., relative humidities of 5% to 90%; FIG. 3", "procedure": "The hygroscopicity of the amorphous substance was evaluated using a microbalance (MB300W, VTI Corporation, USA). A sample placed in a glass holder was suspended in a device adjusted at 25° C., and a change in the weight thereof was followed over relative humidities of 5% to 90%. The sample weight was measured at measuring points (of the relative humidities) with an interval of 2 minutes; the weight at the time point of the amount of change reaching within 0.2% was defined as the final value."}, "[3]": {"conditions": "pH 5 buffer (diluted McIlvaine buffer solution)"}, "[4]": {"conditions": "pH 7 buffer (Dulbecco's phosphate-buffered saline)"}}}
{"smiles": "COc1cc(/C=C2\\CCCN([C@@H](C)c3ccc(F)cc3)C2=O)ccc1-n1cnc(C)c1", "note": "[Crystalline compound (1), (3E)-1-[(1S)-1-(4-fluorophenyl)ethyl]-3-[3-methoxy-4-(4-methyl-1H-imidazol-1-yl)benzylidene]piperidin-2-one]", "values": [{"measurement": "Apparent solubilites", "setting": "[1]; [3]", "result": 0.077, "unit": "mg/mL"}, {"measurement": "Apparent solubilites", "setting": "[1]; [4]", "result": 0.003, "unit": "mg/mL"}]}
{"smiles": "COc1cc(/C=C2\\CCCN([C@@H](C)c3ccc(F)cc3)C2=O)ccc1-n1cnc(C)c1", "note": "[Amorphous compound (1), (3E)-1-[(1S)-1-(4-fluorophenyl)ethyl]-3-[3-methoxy-4-(4-methyl-1H-imidazol-1-yl)benzylidene]piperidin-2-one]", "values": [{"measurement": "Apparent solubilites", "setting": "[1]; [3]", "result": 0.225, "unit": "mg/mL"}, {"measurement": "Apparent solubilites", "setting": "[1]; [4]", "result": 0.011, "unit": "mg/mL"}, {"measurement": "Hygroscopicity (weight change over relative humidity)", "setting": "[2]", "result": "low hygroscopicity"}]}
